Series [1] deals with P. falciparum chloroquine sensitive strain 3D7. Briefly: 3D7 growth inhibition, 3H-hypoxanthine assay. It is filed as cell-based, Plasmodium falciparum. Conditions: read-out: IC50 against Pf 3D7. On the procedure: (§1) The IC50 values against Pf-GHA and MRC-5 were determined by using the less sensitive colorimetric NBT-based lactate dehydrogenase assay (Makler et al, Am. J. Trop. Med. Hyg. 1993, 48 (6), 739-741) based on redox-reactions.
(§2) Parasite Cultures. […] P. falciparum in vitro culture was carried out using standard protocols (Trager et al, 1976 Science, 193, 673-675) with modifications. Briefly, parasites were maintained in tissue culture flasks in human A Rh+ erythrocytes at 5% hematocrit in RPMI 1640 supplemented with 25 mM HEPES, 24 mM NaHCO3, 0.2% (w/v) glucose, 0.03% L-glutamine, 150 μM hypoxanthine, and 0.5% Albumax II® (Invitrogen) in a 5% CO2/air mixture at 37° C., and the medium was changed daily.
(§3) In Vitro Antiparasitic Bioassays. Drug susceptibility of P. falciparum was studied using a modified method (Cameron et al, 2004 J. Biol. Chem. 279, 31429-31439) of the protocol described previously (Desjardins et al, 1979). All assays included CQ diphosphate (Sigma, UK) as a standard and control wells with untreated infected and uninfected erythrocytes. IC50 values were derived by sigmoidal regression analysis (Microsoft Xlfit™).

The test system of series [2] is P. falciparum multidrug-resistant strain Dd2. Briefly: Dd2 growth inhibition, 3H-hypoxanthine assay. The format is cell-based, Plasmodium falciparum. Particulars: Plasmodium falciparum. On the procedure: The IC50 was tested by standard in vitro antiproliferation assays (Desjardins et al, 1979 Antimicrob. Agents Chemother 1979, 16, 710-718). Infected erythrocytes in ring stage (0.5% parasitemia, 2.5% hematocrit) in 96-well plates were exposed to the compounds for 48 h and then to radioactive hypoxanthine for 24 h. The amount of radioactivity in precipitable material served as an index of cell proliferation.

The test system of series [3] is Pf-GHA. Briefly: Pf-GHA growth inhibition, colorimetric NBT-based lactate dehydrogenase assay. The format is cell-based. Conditions: Plasmodium falciparum, read-out: IC50 against Pf-GHA. The method, then: as §1
In Vitro Antiparasitic Bioassays. The strain is maintained in RPMI-1640 medium supplemented with 0.37 mM hypoxanthine, 25 mM HEPES, 25 mM NaHCO3, and 10% O^+ human serum together with 2-4% washed human O^+ erythrocytes. All cultures and assays are conducted under an atmosphere of 4% CO2, 3% O2 and 93% N2. Assays are performed in 96-well microtiter plates, each well containing 10 μL of the watery compound dilutions together with 190 μL of the malaria parasite inoculum (1% parasitaemia, 2% HCT). After 72 h incubation, plates are frozen and stored at −20° C. After thawing, 20 μL of each well is transferred into another plate together with 100 μL Malstat reagent and 20 μL of 1/1 mixture of PES (phenazine ethosulfate, 0.1 mg/mL) and NBT (Nitro Blue Tetrazolium Grade III, 2 mg/mL). Change in colour is measured spectrophotometrically at 655 nm. The results are expressed as % reduction in parasitaemia compared to control wells. Compounds are treated at 5 concentrations (64-16-4-1 and 0.25 μM or μg/mL).

Series [4] concerns P. falciparum chloroquine resistant strain K1. Briefly: K1 growth inhibition, 3H-hypoxanthine assay. The format is cell-based, Plasmodium falciparum. Conditions: read-out: IC50 against Pf K1. On the procedure: as §1, §2, §3
The target in series [5] is T1, P. falciparum glutathione reductase (PfGR) (Plasmodium falciparum, UniProt Q94655). Briefly: biochemical.
Experimental: The standard assay was conducted at 25° C. in a 1 mL-cuvette. The assay mixture contained 100 μM NADPH and 1 mM GSSG in GR buffer (100 mM potassium phosphate buffer, 200 mM KCl, 1 mM EDTA, pH 6.9). […] Inhibitor stock solutions were prepared in 100% DMSO. 1% DMSO concentration was kept constant in the assay cuvette. The reaction was started by adding enzyme (8 mU human GR, 6.5 mU P. falciparum GR) and initial rates of NADPH oxidation were monitored at 340 nm (ε340 nm=6.22 mM^−1 cm^−1).
In series [6] the target is T2, human glutathione reductase (hGR) (Homo sapiens, UniProt P00390).
T2 sequence (P00390 44-522): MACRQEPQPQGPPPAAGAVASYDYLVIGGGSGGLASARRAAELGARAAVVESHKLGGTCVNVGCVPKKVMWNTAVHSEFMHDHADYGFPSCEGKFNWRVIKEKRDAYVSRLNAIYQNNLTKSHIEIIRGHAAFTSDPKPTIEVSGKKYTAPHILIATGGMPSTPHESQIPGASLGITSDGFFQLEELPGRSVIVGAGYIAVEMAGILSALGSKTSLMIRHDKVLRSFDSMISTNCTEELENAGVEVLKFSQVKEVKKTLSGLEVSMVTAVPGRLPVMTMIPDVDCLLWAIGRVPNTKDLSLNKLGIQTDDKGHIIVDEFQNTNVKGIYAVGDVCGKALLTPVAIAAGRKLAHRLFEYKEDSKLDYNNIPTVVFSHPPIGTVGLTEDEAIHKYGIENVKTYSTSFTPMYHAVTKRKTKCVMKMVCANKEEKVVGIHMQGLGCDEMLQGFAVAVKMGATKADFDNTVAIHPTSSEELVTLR
Briefly: Inhibition of human glutathione reductase under steady-state conditions. The format is biochemical. Particulars: pH 6.9, 25° C., 1 mM GSSG, 100 μM NADPH.

Series [7] deals with T1, P. falciparum glutathione reductase (PfGR). Briefly: 1,4-Naphthoquinone reductase activity of P. falciparum glutathione reductase. Conditions: with respect to menadione. It is filed as biochemical. The method, then: The reduction assay mixture consisted of 100 mM potassium phosphate buffer pH 6.9, 200 mM KCl, 1 mM EDTA and 100 μM NADPH in a total volume of 1 mL. 1,4-naphthoquinone reductase activity was determined by recording the initial velocities in the presence of increasing naphthoquinone concentrations (0-300 μM). […] For the determination of KM and Vmax values, the steady-state rates were fitted by using nonlinear regression analysis software (Kaleidagraph) to the Michaelis-Menten equation. From these values, the turnover number kcat and the catalytic efficiency kcat/KM were calculated.

Series [8] deals with Pf H. Briefly: microbe, parasite or virus in culture. Particulars: Plasmodium falciparum, read-out: IC50 against Pf H.
For series [9], the system named is P. berghei ANKA. Briefly: In vivo 4-day suppressive test in P. berghei-infected mice. Also noted: species or system Plasmodium berghei. Conditions: for reduction of the parasitemia: Plasmodium Berghei ANKA-infected CD1 mice. On the procedure: The in vivo tests in the mouse model were done according to a standard protocol (Peters et al Handbook of Animal Models of Infection; Academic Press, London, 1999; pp. 756-771). […] […] For administration, compounds were freshly prepared in 10% DMSO in sterile phosphate-buffered saline the day of use. Two hours post-infection mice received the first treatment by the intraperitoneal route. Mice were further treated on days +1-3. Blood films from tail blood were prepared on day +4, and parasitaemia was determined by microscopic examination of Giemsa-stained blood films. […] […] Mice were treated and levels of parasitemia determined as described.

The subject of series [10] is P. falciparum FCM29. Briefly: microbe, parasite or virus in culture. Particulars: Plasmodium falciparum, 48 h.
Experimental: (§4) Twelve parasite strains or isolates from a wide panel of countries (Africa (3D7), Brazil (Bre), Cambodia (K2 and K14), Cameroon (FCM29), Djibouti (Vol1), the Gambia (FCR3), Indochina (W2), Niger (L1), Senegal (8425), Sierra Leone (D6), and Uganda (PA)) were maintained in culture in RPMI 1640 (Invitrogen, Paisley, United Kingdom), supplemented with 10% human serum (Abcys S.A. Paris, France) and buffered with 25 mM HEPES and 25 mM NaHCO3. Parasites were grown in A-positive human blood under controlled atmospheric conditions that consists of 10% O2, 5% CO2 and 85% N2 at 37° C. with a humidity of 95%.
(§5) FQ and synthetic compounds were resuspended and then diluted in RPMI-DMSO (99 v/1 v) to obtain final concentration ranged from 0.125 to 500 nM. […]
(§6) For in vitro isotopic microtests, 25 μL/well of antimalarial drug and 200 μL/well of the parasitized red blood cell suspension (final parasitemia, 0.5%; final hematocrit, 1.5%) were distributed into 96 well plates. Parasite growth was assessed by adding 1 μCi of tritiated hypoxanthine with a specific activity of 14.1 Ci/mmol (Perkin-Elmer, Courtaboeuf, France) to each well at time zero. […] Radioactivity incorporated by the parasites was measured with a scintillation counter (Top Count; Perkin-Elmer).
(§7) The IC50 value was determined by non-linear regression analysis of log-based dose-response curves (Riasmart™, Packard, Meriden, USA).
Series [11] concerns P. falciparum 3D7. Briefly: microbe, parasite or virus in culture. Particulars: Plasmodium falciparum, 3D7, 48 h.
Experimental: as §4, §5, §6, §7
Series [12] deals with methemoglobin(Fe3+) (Homo sapiens, UniProt P68871+P69905). Briefly: Redox-cycling of methemoglobin(Fe3+) into oxyhemoglobin(Fe2+) with NADPH/GR system. It is filed as biochemical. Particulars: 100 μM MetHb, NADPH, human GR. An excerpt: Since FPIX(Fe^2+) is an inhibitor of hematin polymerization, compounds displaying the ability to reduce FPIX(Fe^3+) into FPIX(Fe^2+) might synergistically contribute with GR inhibition to increased oxidative stress in infected-red blood cells. To evaluate the redox-cycling activity of FPIX(Fe^3+) into FPIX(Fe^2+) we set up an assay using the naphthoquinone, the glutathione reductase/NADPH-based system to regenerate the dihydronaphthoquinone continuously and methemoglobin(Fe^3+) (MetHb). The UV-spectrum of MetHb between 300 nm and 700 nm is characterized by a maximal absorbance at 405 nm and a broad band centered at around 630 nm. […] We used 20 μM methylene blue as positive control of this redox-cycling activity.
In an Eppendorf tube containing 6.4 mg MetHb dissolved in 885 μL GR buffer (47 mM potassium phosphate buffer pH 6.9, 200 mM KCl, 100 mM EDTA), 10 μL 20 mM P_TM25 dissolved in DMSO and 100 μL NADPH dissolved in GR buffer were added. The reaction was started by the addition of 5 μL human GR and then incubated at 37° C. In a 1 mL cuvette 20 μL of the reaction mixture was diluted with 980 μL GR buffer and a UV-spectra between 300 nm and 700 nm was done after 5 min, 10 min, 20 min and 30 min incubation time. The final concentrations in the reaction mixture were 100 μM MetHb, 200 μM P_TM25, 400 μM NADPH and […] hGR, final DMSO concentration 1%.
Spectra were measured after 5 min (blue), 10 min (black), 20 min (green) and 30 min (red).

In series [13] the target is T1, P. falciparum glutathione reductase (PfGR). Particulars: menadione reference, Bauer et al 2006; cited from earlier work.
For series [14] the target is unchanged. Conditions: menadione against PfGR, Biot et al 2004; cited from earlier work.
In series [15] the target is T2, human glutathione reductase (hGR). Conditions: menadione reference, Bauer et al 2006; cited from earlier work.

Each structure is given as a SMILES string. Read-outs that look alike come from different tables or passages of the source.

T1 sequence (Q94655 2-500 limits assumed): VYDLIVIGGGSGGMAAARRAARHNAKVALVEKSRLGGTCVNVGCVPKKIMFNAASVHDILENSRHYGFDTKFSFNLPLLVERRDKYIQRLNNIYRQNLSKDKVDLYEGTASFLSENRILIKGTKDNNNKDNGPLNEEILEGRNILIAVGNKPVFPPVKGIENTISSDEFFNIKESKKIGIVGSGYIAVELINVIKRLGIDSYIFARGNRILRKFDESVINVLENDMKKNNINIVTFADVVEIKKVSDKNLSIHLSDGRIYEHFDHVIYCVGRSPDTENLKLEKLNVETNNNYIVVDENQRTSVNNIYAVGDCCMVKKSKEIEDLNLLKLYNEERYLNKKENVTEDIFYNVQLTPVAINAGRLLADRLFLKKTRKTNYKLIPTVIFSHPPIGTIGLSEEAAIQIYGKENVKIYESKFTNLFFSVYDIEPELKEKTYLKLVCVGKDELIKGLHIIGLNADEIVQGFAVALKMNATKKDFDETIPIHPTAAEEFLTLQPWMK
Chain of methemoglobin(Fe3+) (P69905 2-142 limits assumed): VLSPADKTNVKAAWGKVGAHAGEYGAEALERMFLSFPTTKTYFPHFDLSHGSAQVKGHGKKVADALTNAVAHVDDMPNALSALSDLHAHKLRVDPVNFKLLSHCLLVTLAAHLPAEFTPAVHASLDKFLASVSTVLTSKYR
Chain of methemoglobin(Fe3+) (P68871 2-147 limits assumed): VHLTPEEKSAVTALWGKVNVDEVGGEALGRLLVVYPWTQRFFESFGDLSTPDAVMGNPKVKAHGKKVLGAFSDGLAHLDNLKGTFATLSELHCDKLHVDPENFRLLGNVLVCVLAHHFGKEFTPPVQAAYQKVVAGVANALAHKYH

Regarding `CC1=C(Cc2ccc(C)cc2)C(=O)C2C=CC=CC2C1=O` (stereo not shown) [P_TM21, 2-Methyl-3-(4-methyl-benzyl)-4a,8a-dihydro-[1,4]naphthoquinone], the melting point is 225 °C (dec.). Also, the IC50 in series [1] (Plasmodium falciparum, 3D7) worked out at 270 nM. Further, the 50% inhibitory concentration (IC50) in series [2] (DD2, 48 h exposure then 24 h hypoxanthine, read-out: IC50 against Dd2) worked out at 791 nM. Further, the IC50 in [3] (72 h incubation) was less than 5000 nM. The IC50 in series [4] (Plasmodium falciparum, K1) turned out to be 100 nM.
`CC1=C(C(O)c2ccc(Br)cc2)C(=O)c2ccccc2C1=O` (stereo not shown) [P_TM23, 2-[(4-Bromo-phenyl)-hydroxy-methyl]-3-methyl-[1,4]naphthoquinone] displayed a melting point of 61 to 62 °C. In addition, it took 4500 nM to reach half-maximal inhibition in [5] (IC50). This molecule displayed an IC50 in series [6] of 1300 nM. Also, the “substrate behaviour from catalytic efficiencies kcat/KM” value in [7] was “very effective substrates”.
Consider `CCN(CC)CCCC(C)Nc1ccnc2cc(Cl)ccc12` (stereo not shown) [chloroquine, reference compound], for which the IC50 in [8] was 217 nM; in [10] (read-out: IC50 against strain FCM29), 879 nM; in series [11] (read-out: IC50 against strain 3D7), 21.3 nM; in [1], roughly 20 nM; in series [2] (DD2, read-out: IC50 against Dd2), 291 nM; in series [3] (72 h), 50 nM. Besides, the IC50 in series [4] is roughly 1000 nM. The “reduction of the parasitemia” value is 2.5% in series [9] (1.0 mg/kg), 16.6% in [9] (3.0 mg/kg) and 94.9% in series [9] (10.0 mg/kg). The inhibition of parasitaemia in series [9] (10 mg/kg i.p.) is recorded as 98.9%; in series [9] (p.o. at 10 mg/kg/day, positive control) it was “complete inhibition”. In addition, the figures for the IC90 in [10] (read-out: IC90 against strain FCM29) and in series [11] (read-out: IC90 against strain 3D7) were 1240 nM and 40.4 nM, respectively.
Take `CC1=CC(=O)c2ccccc2C1=O` [menadione]: the “concentration at which the shift of maximal absorbance of MetHb from 405 to 410 nm starts being visible” value in [12] is 50 µM. The IC50 in series [13] is 42000 nM. Also, in [14], the Km was 82.2 µM and the kcat is 0.16 s⁻¹. Also, the IC50 in series [15] is 27500 nM.

(Values after patent publication US9090549B2, “1,4-naphthoquinones derivatives and therapeutic use thereof” (CENTRE NATIONAL DE LA RECHERCHE SCIENTIFIQUE (C.N.R.S.), priority 2008, dated 2015).)
